In US6281214A, “Biphenyl derivatives” (Eisai Co., Ltd, priority 1994, dated 2001) one finds Ki data, which are given here for 30 compounds.

What all share (design): species or system SD rats
One test has as its target T1, serotonin S2 receptor (Rattus norvegicus, UniProt P14842).
T1 construct: The receptor fraction prepared from the cortex was molten and suspended; from tissue; host or cells: cerebral cortex of SD rats (membrane fraction)
Description: serotonin S2 receptor binding test ([3H] Ketanserin Binding Test). To be noted: 1 nM [3H] Ketanserin, rat cortex, 37° C., 15 minutes. In a few lines:
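Ki values came from probit IC50s corrected for radioligand concentration and Kd (Scatchard). Binding used 1 nM [3H]ketanserin with SD rat cortex membrane fractions, 15 min at 37 °C in Tris-HCl pH 7.4. Bound radioactivity was measured after GF/B filtration, with methysergide for nonspecific binding.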

The target of the next test is T2, dopamine D2 receptor (Rattus norvegicus, UniProt P61169).
T2 construct: the receptor fraction prepared from the corpus striatum was molten and suspended; from tissue; host or cells: corpus striatum of SD rats (membrane fraction)
Description: dopamine D2 receptor binding test ([3H] Spiperone Binding Test). Particulars: 1 nM [3H] Spiperone, rat corpus striatum, room temperature, 60 minutes. The method, boiled down: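 Rat (SD, 6–8 weeks) corpus striatum membranes in 50 mM Krebs-Tris pH 7.4 were incubated with 1 nM [3H]spiperone at room temperature for 60 minutes, with nonspecific binding defined by excess spiperone. IC50 came from probit analysis; Ki was derived using radioligand concentration and Scatchard Kd.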

The target in the next test is adrenergic α1 receptor. Nature of the test: adrenergic α1 receptor binding test ([3H] Prazosin Binding Test). To be noted: 1 nM [3H] Prazosin, rat cortex, room temperature, 60 minutes. The method, boiled down:
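Rat (SD, 6-8 weeks) cerebral cortex membranes in 50 mM Tris-HCl pH 7.4 incubated with 1 nM [3H]prazosin for 60 min at room temperature; nonspecific binding defined with phentolamine. IC50 by probit method, converted to Ki using radioligand concentration and Scatchard-derived Kd.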

[1] abbreviates: read-out: Ki value, dopamine D2 receptor.

Like-named read-outs stand apart in the source and are kept apart here.

T2 sequence (P61169 whole entry): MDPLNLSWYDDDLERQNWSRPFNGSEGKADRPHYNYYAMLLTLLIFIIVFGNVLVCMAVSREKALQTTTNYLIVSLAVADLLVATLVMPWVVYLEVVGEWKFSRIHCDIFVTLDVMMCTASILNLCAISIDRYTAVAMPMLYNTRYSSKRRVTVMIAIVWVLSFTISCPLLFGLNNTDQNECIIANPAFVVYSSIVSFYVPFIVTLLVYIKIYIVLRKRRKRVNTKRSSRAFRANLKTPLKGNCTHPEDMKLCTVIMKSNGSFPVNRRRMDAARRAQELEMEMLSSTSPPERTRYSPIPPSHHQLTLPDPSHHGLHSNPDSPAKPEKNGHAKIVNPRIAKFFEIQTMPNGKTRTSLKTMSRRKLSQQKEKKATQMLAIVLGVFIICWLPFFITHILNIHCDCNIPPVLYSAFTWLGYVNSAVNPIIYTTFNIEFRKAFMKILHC
T1 sequence (P14842 whole entry): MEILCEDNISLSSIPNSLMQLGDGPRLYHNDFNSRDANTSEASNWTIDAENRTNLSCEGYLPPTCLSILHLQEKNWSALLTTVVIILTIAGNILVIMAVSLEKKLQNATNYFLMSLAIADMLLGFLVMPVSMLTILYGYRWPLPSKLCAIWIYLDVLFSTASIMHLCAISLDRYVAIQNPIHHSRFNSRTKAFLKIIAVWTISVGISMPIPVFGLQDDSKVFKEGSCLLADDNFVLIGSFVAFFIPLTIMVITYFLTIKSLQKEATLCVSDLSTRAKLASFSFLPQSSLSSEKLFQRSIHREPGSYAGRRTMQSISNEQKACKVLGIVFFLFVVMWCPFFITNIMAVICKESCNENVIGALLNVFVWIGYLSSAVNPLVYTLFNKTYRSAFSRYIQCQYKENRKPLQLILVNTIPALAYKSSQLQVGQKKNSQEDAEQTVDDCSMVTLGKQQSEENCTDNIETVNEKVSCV

Turning to `CCN1CCN(c2cc(C(Cc3ccc(F)cc3)=NO)c(OC)c(-c3ccccc3)c2)CC1` [Example 98, 1-Ethyl-4-{3-phenyl-4-methoxy-5-[4-fluoro-(1-hydroxyimino)phentheyl]}phenylpiperazine], the Ki at serotonin S2 receptor was 19.3 nM; on dopamine D2 receptor (setting [1]) it was 64.5 nM; on adrenergic α1 receptor, over 1000 nM.
The like results for `CCN1CCN(c2cc(-c3ccccc3)c(OC)c(C(F)Cc3ccccn3)c2)CC1` (stereo not drawn) [Example 99, 1-Ethyl-4-{3-phenyl-4-methoxy-5-[1-fluoro-2-(2-pyridyl)ethyl]}phenylpiperazine] were, in that order, 170 nM, 2.93 nM and over 1000 nM.
Take `C/C=C/c1cc(N2CCN(CC)CC2)cc(-c2ccccc2)c1OC` [Example 100, 1-Ethyl-4-[3-phenyl-4-methoxy-5-(1-propenyl)]phenylpiperazine hydrochloroide]: the Ki at serotonin S2 receptor is 827 nM; on dopamine D2 receptor (setting [1]) it was 82.7 nM; on adrenergic α1 receptor it was 846 nM.
The like results for `CCCc1cc(N2CCN(CC)CC2)cc(-c2cccc(F)c2)c1OC` [Example 101, 1-Ethyl-4-[3-(3-fluorophenyl)-4-methoxy-5-propyl]phenylpiperazine] were, in that order, 262 nM, 118 nM and over 1000 nM.
For `CCN1CCN(c2cc(CO)c(OC)c(-c3ccccc3)c2)CC1` [Example 102, 1-Ethyl-4-(3-phenyl-4-methoxy-5-hydroxymethyl)phenylpiperazine] the same measures were over 1000 nM, over 1000 nM and 525 nM.
As to `CCN1CCN(c2cc(C(=O)Cc3ccncc3)c(OC)c(-c3ccccc3)c2)CC1` [Example 103, 1-Ethyl-4-[3-phenyl-4-methoxy-5-(4-pyridyl)acetyl]phenylpiperazine], the inhibition constant Ki at serotonin S2 receptor was 6.65 nM; at dopamine D2 receptor (setting [1]), 101 nM; on adrenergic α1 receptor, over 1000 nM.
For `CCN1CCN(c2cc(-c3ccccc3)c(OC)c([S+](C)[O-])c2)CC1` (stereo not drawn) [Example 104, 1-Ethyl-4-(3-phenyl-4-methoxy-5-methanesulfinyl)phenylpiperazine] the same measures were 24.5 nM, 70.1 nM and over 1000 nM.
For `CCN1CCN(c2cc(-c3ccccc3)c(OC)c([S+]([O-])CC)c2)CC1` (stereo not drawn) [Example 105, 1-Ethyl-4-(3-phenyl-4-methoxy-5-ethanesulfinyl)phenylpiperazine] the same measures were 5.21 nM, 30.2 nM and 620 nM.
As for `CCN1CCN(c2cc(C=O)c(OC)c(-c3ccccc3)c2)CC1` [Example 106, 1-Ethyl-4-(3-phenyl-4-methoxy-5-formyl)phenylpiperazine], the inhibition constant Ki on serotonin S2 receptor was 380 nM; at dopamine D2 receptor (Ki value, dopamine D2 receptor), 44 nM; at adrenergic α1 receptor it was over 1000 nM.
Regarding `CCN1CCN(c2cc(-c3ccccc3)c(OC)c(C3OCCCO3)c2)CC1` [Example 107, 1-Ethyl-4-[3-phenyl-4-methoxy-5-(1,3-dioxan-2yl)]phenylpiperazine], the Ki at serotonin S2 receptor is over 1000 nM; on dopamine D2 receptor (setting [1]) it was 429 nM; on adrenergic α1 receptor, over 1000 nM.
On to `CCN1CCN(c2cc(C(=O)CC3CC3)c(OC)c(-c3ccccc3)c2)CC1` [Example 108, Ethyl-4-(3-phenyl-4-methoxy-5-cyclopropaneacetyl)phenylpiperazine], for which the Ki is 4 nM at serotonin S2 receptor, 162 nM at dopamine D2 receptor (setting [1]) and 408 nM on adrenergic α1 receptor.
For `CCN1CCN(c2cc(C(=O)c3ccccn3)c(OC)c(-c3ccccc3)c2)CC1` [Example 109, 1-Ethyl-4-[3-phenyl-4-methoxy-5-(2-pyridylcarbonyl)]phenylpiperazine] the same measures were 230 nM, over 1000 nM and over 1000 nM.
On to `CCN1CCN(c2cc(N)c(OC)c(-c3ccccc3)c2)CC1` [Example 110, 1-Ethyl-4-(3-phenyl-4-methoxy-5-amino)phenylpiperazine], for which the Ki at serotonin S2 receptor, on dopamine D2 receptor (setting [1]) and on adrenergic α1 receptor was over 1000 nM each time.
For the compound `CCOC(=O)CCc1cc(N2CCN(CC)CC2)cc(-c2ccccc2)c1OC` [Example 111, 1-Ethyl-4-[3-phenyl-4-methoxy-5-(2-ethoxycarbonylethyl)]phenylpiperazine], the inhibition constant Ki was determined as 58 nM at serotonin S2 receptor, 41.9 nM at dopamine D2 receptor (setting [1]) and 210 nM at adrenergic α1 receptor.
The like results for `CCN1CCN(c2cc(-c3ccccc3)c(OC)c(C(O)c3ccccn3)c2)CC1` (stereo not drawn) [Example 112, 1-Ethyl-4-[3-phenyl-4-methoxy-5-(2-pyridyl)hydroxymethyl]phenylpiperazine] were, in that order, 7 nM, 972 nM and over 1000 nM.
In the case of `CCCc1cc(-c2ccccc2)cc(N2CCN(CC)CC2)c1OC` [Example 113, 1-Ethyl-4-(3-phenyl-5-propyl-6-methoxy)phenylpiperazine hyrochloroide], the figures for the inhibition constant Ki on serotonin S2 receptor, at dopamine D2 receptor (setting [1]) and on adrenergic α1 receptor were 21.1 nM, 8.73 nM and 28.9 nM, respectively.
Regarding `CCN1CCN(c2cc(CCC(C)=O)c(OC)c(-c3ccccc3)c2)CC1` [Example 114, 1-Ethyl-4-[3-phenyl-4-methoxy-5-(2-acetylethyl)]phenylpiperazine], the Ki came to 151 nM at serotonin S2 receptor, 165 nM on dopamine D2 receptor (setting [1]) and 569 nM on adrenergic α1 receptor.
The like results for `CCC(OCc1ccccn1)c1cc(N2CCN(CC)CC2)cc(-c2ccccc2)c1OC` (stereo not drawn) [Example 115, 1-Ethyl-4-{3-phenyl-4-methoxy-5-[1-(2-pyridylmethoxy)propyl]}phenylpiperazine] were, in that order, 212 nM, 81.4 nM and over 1000 nM.
Consider `CCCc1cc(N2CCN(CC)CC2)cc(-c2ccccc2C)c1OC` [Example 116, 1-Ethyl-4-[3-(2-tolyl)-4-methoxy-5-propyl]phenylpiperazine], for which the Ki on serotonin S2 receptor was 39.5 nM; at dopamine D2 receptor (setting [1]), 9.65 nM; on adrenergic α1 receptor, over 1000 nM.
The like results for `CCCNc1cc(N2CCN(CC)CC2)cc(-c2ccccc2)c1OC` [Example 117, 1-Ethyl-4-(3-phenyl-4-methoxy-5-propylamino)phenylpiperazine] were, in that order, 148 nM, 49.6 nM and 334 nM.
For `O=C(Cc1ccccc1)c1cc(N2CCNCC2)cc(-c2ccccc2)c1O` [Example 118, 1-(3-Phenyl-4-hyroxy-5-phenylaectyl)phenylpiperazine] the same measures were 468 nM, 149 nM and over 1000 nM.
The like results for `CCN1CCN(c2cc(-c3ccccc3)c(OC)c([S+]([O-])Cc3ccccc3)c2)CC1` (stereo not drawn) [Example 119, 1-Ethyl-4-(3-phenyl-4-methoxy-5-benzylsulfinyl)phenylpiperazine] were, in that order, 34.9 nM, 35.8 nM and over 1000 nM.
For the compound `CCN1CCN(c2cc(-c3ccccc3)c(OC)c(C(F)Cc3ccncc3)c2)CC1` (stereo not drawn) [Example 121, 1-Ethyl-4-{3-phenyl-4-methoxy-5-[1-fluoro-2-(4-pyridyl)ethyl]}phenylpiperazine], the inhibitory constant (Ki) at serotonin S2 receptor worked out at 168 nM; on dopamine D2 receptor (setting [1]), 11 nM; on adrenergic α1 receptor it was 308 nM.
For `CCN1CCN(c2cc(-c3ccccc3)c(OC)c(N(C)S(=O)(=O)CC)c2)CC1` [Example 122, 1-Ethyl-4-[3-phenyl-4-methoxy-5-(N-ethanesulfonyl-N-methylamino)]phenylpiperazine] the same measures were 123 nM, 45.9 nM and 68.1 nM.
The like results for `CCNS(=O)(=O)c1cc(N2CCN(CC)CC2)cc(-c2ccccc2)c1OC` [Example 123, 1-Ethyl-4-(3-phenyl-4-methoxy-5-ethylaminofonyl)phenylpiperazine] were, in that order, 17.9 nM, 27 nM and over 1000 nM.
For `CCN1CCN(c2cc(-c3ccccc3)c(OC)c(S(N)(=O)=O)c2)CC1` [Example 124, 1-Ethyl-4-(3-phenyl-4-methoxy-5-aminosulfonyl)phenylpiperazine] the same measures were over 1000 nM, 99.2 nM and over 1000 nM.
As to `COc1c(C(=O)Cc2ccccc2)cc(N2CCNCC2)cc1-c1ccccc1` [Example 125, 1-(3-phenyl-4-methoxy-5-phenylacetyl)phenylpiperazine], the Ki at serotonin S2 receptor is 1.49 nM; on dopamine D2 receptor (setting [1]) it was 101 nM; on adrenergic α1 receptor it was over 1000 nM.
The like results for `COc1c(C(=O)Cc2ccccc2)cc(N2CCN(Cc3ccccc3)CC2)cc1-c1ccccc1` [Example 126, 1-Benzyl-4-(3-phenyl-4-methoxy-5-phenylacetyl)phenylpiperazine] were, in that order, 27.3 nM, 54.6 nM and over 1000 nM.
For `CCC(F)c1cc(N2CCN(CC)CC2)cc(-c2ccccc2)c1Cl` (stereo not drawn) [Example 127, 1-Ethyl-4-[3-phenyl-4-chloro-5-(1-fluoropropyl)]phenylpiperazine], the values for the Ki at serotonin S2 receptor, on dopamine D2 receptor (setting [1]) and on adrenergic α1 receptor were 11.4 nM, 1.04 nM and 65.9 nM, respectively.
The like results for `COc1c(C(=O)Cc2ccccc2)cc(N2CCN(CCO)CC2)cc1-c1ccccc1` [Example 128, 1-(2-Hydroxyethyl)-4-(3-phenyl-4-methoxy-5-phenylacetyl)phenylpiperazine] were, in that order, 1.16 nM, 46.1 nM and over 1000 nM.
